Experimental data: patent publication US20210323940A1 (OCEANS LTD., priority 2018, published 2021)

Legend:
Format in all cases: in vivo, nude mice (strain J:NU)
[1] = test system: MDA-MB-231 human breast cancer cells; assay: Murine flank tumor model, pure compound (II): tumor volume and weight; conditions: for Tumour weight (mg) ± SEM, extracted at necropsy: intraperitoneal every second day, 4 weeks
Protocol: Animal studies were conducted under ACC protocol #17-020 and Biosafety protocol #6007077 approved by the Atlantic Veterinary College (AVC, UPEI). Briefly, homozygous outbred nude mice (strain J:NU, 4-weeks old, female) suitable as immunodeficient tumor transplant hosts were procured from a commercial supplier (Jackson Labs, Maine, USA) and acclimatized in a barrier facility (AVC, UPEI) for one week.
To establish the tumors, MDA-MB-231 human breast cancer cells were cultured in vitro and harvested when they were between 60 to 80% confluent. Under anesthetized conditions, each the mouse was injected subcutaneously into both right and left flanks with […] (50:50 in matrigel:DMEM). Tumors development was monitored over a 2-week period. At 2 weeks, tumor established mice (tumor volume ˜20 mm^3) were selected and randomly grouped based on the tumor volume and body weight into ten mice per group as follows: • Group 1: Vehicle control (VC, DMSO 2%, Kholliphor EL 2%) • Group 2: Compound (II), 10 mg/kg body weight • Group 3: Compound (II), 5 mg/kg body weight
Seaweed extract was dissolved in molecular grade DMSO, liquid emulsion was prepared in Kholliphor EL (Sigma, USA) and the final injectable solution was prepared using sterile normal saline.
Mice with established tumors were treated every second day by intraperitoneal injections of test extracts over a 4-week time course. From each group a minimum of 16 tumors were selected for analysis. Tumors were measured weekly using external calipers and volumes established using the modified ellipsoidal formula: tumor volume=0.5 (length×width^2).
In addition, body weights and general animal health were assessed twice weekly during the treatment period. At study termination, mice were sacrificed, and tumors excised from the flank. To evaluate tumor metastasis, an explorative necropsy was conducted in each mouse and the presence and frequency of additional tumors at sites distal to the flank were assessed. Tumor tissue from the flank region was collected and preserved in 10% neutral buffered formalin for histology. Variance within each of the treatment groups to vehicle control was assessed over the four-week time course by one-way ANOVA.

[2] = test system: MDA-MB-231 breast cancer cells; assay: Murine flank tumour model, synthesized compound (II) (DHODO): tumour volume
Protocol: (§1) Test material was dissolved in DMSO and the final injectable solution was prepared using PBS. Homozygous outbred nude mice (strain J:NU, 6-weeks old, female) suitable as immune-deficient tumour transplant hosts will be procured from a commercial supplier (Jackson Labs, Maine, USA) and acclimatized in a barrier facility (AVC) for one week. Mice were weighed and random groups of ten mice were established based on the tumour volume and body weight as follows: To establish the tumours, MDA-MB-231 breast cancer cells (2.5 million cells in 100 pl 50:50 matrigel:DMEM) were injected subcutaneously into both right and left flanks. Tumours were evaluated over a 2-week period until sufficient volume growth (approximately 20 mm3) for subsequent analysis had occurred. During this period, body weights were measured twice weekly. Mice with established tumours were treated every second day by intraperitoneal injections of test compounds over a 4-week time course. From each group a minimum of 15 tumours were selected for analysis. Tumours were measured weekly using external calipers and volumes established using the modified ellipsoidal formula: tumour volume=0.5 (length×width2). In addition, body weights and general animal health were assessed twice weekly during the treatment period. At study termination, mice were sacrificed and tumours excised from the flank was weighed. To evaluate tumour metastasis, an explorative necropsy was conducted in each mouse and the presence and frequency of additional tumours at sites distal to the flank were assessed.

[3] = Murine flank tumour model, synthesized compound (II) (DHODO): body weights
Protocol: as §1, with “To” for “Test material was dissolved in DMSO and the final injectable solution was prepared using PBS. Homozygous outbred nude mice (strain J:NU, 6-weeks old, female) suitable as immune-deficient tumour transplant hosts will be procured from a commercial supplier (Jackson Labs, Maine, USA) and acclimatized in a barrier facility (AVC) for one week. Mice were weighed and random groups of ten mice were established based on the tumour volume and body weight as follows: To”

For `CCCCC[C@H](O)[C@H](O)/C=C/[C@@H]1CCCCCCCC(=O)O1` [compound (II), 12R, 13S-Dihydroxy-10-Octadecen-9S-olide], the “Tumour volumes ± SEM” value ([1]; 5 mg/kg b. wt. i.p. every second day, Week 0) was 26.94 ± 1.98 mm^3, the “Tumour volumes ± SEM” value ([1]; 5 mg/kg b. wt. i.p. every second day, Week 1) was 20.83 ± 2.20 mm^3 and the “Tumour volumes ± SEM” value ([1]; 5 mg/kg b. wt. i.p. every second day, Week 2) was 17.38 ± 2.04*¶ mm^3. The “Tumour volumes ± SEM” value ([1]; 5 mg/kg b. wt. i.p. every second day, Week 3) was 17.23 ± 3.18*¶ mm^3, the “Tumour volumes ± SEM” value ([1]; 5 mg/kg b. wt. i.p. every second day, Week 4) was 28.01 ± 3.61*¶ mm^3 and the “Tumour weight (mg) ± SEM, extracted at necropsy” value ([1]; 5 mg/kg b.wt.) was 34.64 ± 15.78 mg. The “Tumour volumes ± SEM” value ([1]; 10 mg/kg b. wt. i.p. every second day, Week 0) was 27.09 ± 1.60 mm^3, the “Tumour volumes ± SEM” value ([1]; 10 mg/kg b. wt. i.p. every second day, Week 1) was 24.06 ± 1.98 mm^3 and the “Tumour volumes ± SEM” value ([1]; 10 mg/kg b. wt. i.p. every second day, Week 2) was 17.40 ± 2.88*¶ mm^3. The “Tumour volumes ± SEM” value ([1]; 10 mg/kg b. wt. i.p. every second day, Week 3) was 18.95 ± 5.34*¶ mm^3, the “Tumour volumes ± SEM” value ([1]; 10 mg/kg b. wt. i.p. every second day, Week 4) was 28.37 ± 9.37*¶ mm^3 and the “Tumour weight (mg) ± SEM, extracted at necropsy” value ([1]; 10 mg/kg b.wt.) was 27.29 ± 8.07 mg. For the same molecule, the “tumor volume at the end of 4-weeks (average)” value ([1]; 5 and 10 mg/kg, controls rose from 26 to 73 mm^3) was ~27 mm^3, the “change in tumor size during the 4-week study” value ([1]; both tested concentrations (5 and 10 mg/kg)) was “no significant change in tumor size” and the “Tumour weight at necropsy” value ([2]; 1 mg) was 0.0815 g. The “Tumour size expressed in volume” value ([2]; 1 mg/kg, Week 0) was 40.59 mm^3, the “Tumour size expressed in volume” value ([2]; 1 mg/kg, Week 1) was 36.34 mm^3 and the “Tumour size expressed in volume” value ([2]; 1 mg/kg, Week 2) was 65.15 mm^3. The “Tumour size expressed in volume” value ([2]; 1 mg/kg, Week 3) was 82.66 mm^3, the “Tumour size expressed in volume” value ([2]; 1 mg/kg, Week 4) was 110.23 mm^3 and the “Tumour weight at necropsy” value ([2]; 5 mg) was 0.0380 g. For the same molecule, the tumour growth ([2]; 5 mg/kg) was “inhibited tumour growth”, the “Tumour volumes reduced by” value ([2]; 5 mg/kg, intraperitoneal every second day, 4 weeks) was 50% and the “Tumour size expressed in volume” value ([2]; 5 mg/kg, Week 0) was 44.24 mm^3. The “Tumour size expressed in volume” value ([2]; 5 mg/kg, Week 1) was 30.47 mm^3, the “Tumour size expressed in volume” value ([2]; 5 mg/kg, Week 2) was 39.17 mm^3 and the “Tumour size expressed in volume” value ([2]; 5 mg/kg, Week 3) was 43.73 mm^3. The “Tumour size expressed in volume” value ([2]; 5 mg/kg, Week 4) was 66.83 mm^3, the “Tumour weight at necropsy” value ([2]; 10 mg) was 0.0913 g and the “Tumour size expressed in volume” value ([2]; 10 mg/kg, Week 0) was 46.33 mm^3. For the same molecule, the “Tumour size expressed in volume” value ([2]; 10 mg/kg, Week 1) was 52.86 mm^3, the “Tumour size expressed in volume” value ([2]; 10 mg/kg, Week 2) was 71.23 mm^3 and the “Tumour size expressed in volume” value ([2]; 10 mg/kg, Week 3) was 73.39 mm^3. The “Tumour size expressed in volume” value ([2]; 10 mg/kg, Week 4) was 154.29 mm^3, the “reduction in tumour growth” value ([2]; 1 and 10 mg/kg, early exponential tumour growth in these groups) was “No reduction in tumour growth” and the “Body weight change Δ over the four-week trial” value (“Body weight change Δ” for short) ([3]; 1 mg/kg) was 0.6 g. It also gave a Body weight ([3]; 1 mg/kg, Week 1) of 21.9 g, a Body weight ([3]; 1 mg/kg, Week 2) of 22.5 g and a Body weight ([3]; 1 mg/kg, Week 3) of 22.1 g. The Body weight ([3]; 1 mg/kg, Week 4) was 22.5 g, the “Body weight change Δ” value ([3]; 5 mg/kg) was 0.9 g and the Body weight ([3]; 5 mg/kg, Week 1) was 23.8 g. The Body weight ([3]; 5 mg/kg, Week 2) was 24.8 g, the Body weight ([3]; 5 mg/kg, Week 3) was 24.3 g and the Body weight ([3]; 5 mg/kg, Week 4) was 24.9 g. The “Body weight change Δ” value ([3]; 10 mg/kg) was 0.8 g, the Body weight ([3]; 10 mg/kg, Week 1) was 24.2 g and the Body weight ([3]; 10 mg/kg, Week 2) was 24.8 g. The Body weight ([3]; 10 mg/kg, Week 3) was 24.3 g and the Body weight ([3]; 10 mg/kg, Week 4) was 25.0 g.
